These are literature values, as cited in patent publication US9399681B2, “Amatoxin-conjugates with improved linkers” (Heldelberg Pharma GmbH, priority 2010, dated 2016).

For orientation: Kd means a measure of binding affinity in units of concentration.

The series deals with DNA-dependent RNA polymerase II of mammalian cells (Homo sapiens, UniProt P24928). To be noted: background statement, non-covalent complex; read-out: KD of the complex between amanitin and RNA-polymerase II.

On to amanitin, for which the Kd was 3 nM.
